Assay results reported in patent US20240270699A1, “COMPOUNDS HAVING N-ARYLPYRIMIDIN-2-AMINE DERIVATIVES AS THERAPEUTIC AGENTS” (Lomond Therapeutics, Inc., priority 2021, published 2024).
Read-outs that look alike come from different tables or passages of the source.

Assays:
[1] = target: T1, recombinant HPK1 protein (Homo sapiens, UniProt Q92918); assay: Primary assay of HPK1 enzymatic activity inhibition (ADP-Glo luminescence); format: biochemical; conditions: recombinant HPK1, MBP substrate, 1 hour at room temperature
T1 construct: purchased Promega V6398
T1 sequence (Q92918 1-346 limits assumed): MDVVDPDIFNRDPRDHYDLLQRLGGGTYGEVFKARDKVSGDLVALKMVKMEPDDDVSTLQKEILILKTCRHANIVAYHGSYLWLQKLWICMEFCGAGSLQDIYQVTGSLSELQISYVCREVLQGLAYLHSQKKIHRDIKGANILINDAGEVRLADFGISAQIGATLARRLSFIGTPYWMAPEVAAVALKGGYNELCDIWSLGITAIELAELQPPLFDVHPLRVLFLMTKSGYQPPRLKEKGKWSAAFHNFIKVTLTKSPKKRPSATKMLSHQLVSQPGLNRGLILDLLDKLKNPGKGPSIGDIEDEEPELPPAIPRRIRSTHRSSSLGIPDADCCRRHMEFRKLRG

[2] = tested on: Jurkat cells; assay: IL-2 release Jurkat assay (anti-CD3/anti-CD28 stimulation, IL-2 ELISA); format: cell-based, human; conditions: activation with 400 ng/mL aCD3 + 400 ng/mL aCD28, 24 hours
[3] = Pharmacokinetic (PK) study in mice; format: in vivo; conditions: mouse, plasma, male CD-1 mice, PO 10 mg/kg, solution, vs IV 2 mg/kg, read-out: Fabs, % (percent bioavailability)
[4] = Table B: Jurkat, 1.5 μM of tested compounds
[5] = vehicle 80% PEG400, 10% TPGS and 10% ethanol
[6] = Table C: Jurkat, 6 μM of tested compounds, stimulated vehicle = A
[7] = Table F: Jurkat, 1.0 μM of tested compounds
[8] = Table G: Jurkat, 1.0 μM of tested compounds

Compound | IC50 [1] | bioavailability [3, 5] | other results
O=C1CCc2cc(Nc3ncc(-c4nnco4)c(N[C@H](CO)c4ccccc4)n3)ccc2N1 [Compound 19, 6-[[4-[[(1S)-2-hydroxy-1-phenyl-ethyl]amino]-5-(1,3,4-oxadiazol-2-yl)pyrimidin-2-yl]amino]-3,4-dihydro-1H-quinolin-2-one] | < 50 nM | 16.3% | IL-2, pg/mL stimulated [2, 4]: B (5.0 pg/mL≤IL-2<25.0 pg/mL)
Cc1noc(-c2cnc(Nc3ccc4c(c3)CCC(=O)N4)nc2N[C@H](CO)c2ccccc2)n1 [Compound 86, 6-[[4-[[(1S)-2-hydroxy-1-phenyl-ethyl]amino]-5-(3-methyl-1,2,4-oxadiazol-5-yl)pyrimidin-2-yl]amino]-3,4-dihydro-1H-quinolin-2-one] | < 50 nM | 83.6% | IL-2, pg/mL stimulated [2, 4]: C (25.0 pg/mL≤IL-2<35.0 pg/mL)
CS(=O)(=O)c1ccc(Nc2ncc(-c3nnco3)c(N[C@H](CO)c3ccccc3)n2)cc1F [Compound 161, (2S)-2-{[2-{[3-fluoro-4-(methylsulfonyl)phenyl]amino}-5-(1,3,4-oxadiazol-2-yl)pyrimidin-4-yl]amino}-2-phenylethanol] | < 50 nM |  | IL-2, pg/mL stimulated [2, 6]: C (100 pg/mL≤IL-2<150 pg/mL); bioavailability ([3]; vehicle 20% HP-b-CD): 95.1%
O=S1(=O)CCCc2cc(Nc3ncc(-c4nnco4)c(N[C@H](CO)c4ccccc4)n3)ccc21 [Compound 228, (2S)-2-[[2-[(1,1-dioxo-3,4-dihydro-2H-thiochromen-6-yl)amino]-5-(1,3,4-oxadiazol-2-yl)pyrimidin-4-yl]amino]-2-phenyl-ethanol] | < 50 nM | 11.4% | IL-2, pg/mL stimulated ([2]; Table E: Jurkat, 1.5 μM of tested compounds): B (50 pg/mL≤IL-2<100 pg/mL)
Cc1noc(-c2cnc(Nc3ccc(S(C)(=O)=O)c(C)c3)nc2N[C@H](CO)c2ccccc2)n1 [Compound 252, (2S)-2-{[2-{[3-methyl-4-(methylsulfonyl)phenyl]amino}-5-(3-methyl-1,2,4-oxadiazol-5-yl)pyrimidin-4-yl]amino}-2-phenylethanol] | 50 to 200 nM | 19.9% | IL-2, pg/mL stimulated [2, 6]: B (50 pg/mL≤IL-2<100 pg/mL)
Cc1noc(-c2cnc(Nc3ccc(S(C)(=O)=O)c(F)c3)nc2N[C@H](CO)c2ccccc2)n1 [Compound 270, (2S)-2-{[2-{[3-fluoro-4-(methylsulfonyl)phenyl]amino}-5-(3-methyl-1,2,4-oxadiazol-5-yl)pyrimidin-4-yl]amino}-2-phenylethanol] | < 50 nM | 76.5% | IL-2, pg/mL stimulated [2, 6]: A (IL-2<50 pg/mL)
Cc1noc(-c2cnc(Nc3ccc4c(c3)CCNC4=O)nc2N[C@H](CO)c2ccccc2)n1 [Compound 558, 6-[[4-[[(1S)-2-hydroxy-1-phenyl-ethyl]amino]-5-(3-methyl-1,2,4-oxadiazol-5-yl)pyrimidin-2-yl]amino]-3,4-dihydro-2H-isoquinolin-1-one] | < 50 nM | 16.3% | IL-2, pg/mL stimulated ([2]; Table D: Jurkat, 6 μM of tested compounds, stimulated vehicle = B): D (150 pg/mL≤IL-2)
O=C1NCCc2cc(Nc3ncc(-c4nnco4)c(N[C@H](CO)c4ccccc4)n3)ccc21 [Compound 563, 6-[[4-[[(1S)-2-hydroxy-1-phenyl-ethyl]amino]-5-(1,3,4-oxadiazol-2-yl)pyrimidin-2-yl]amino]-3,4-dihydro-2H-isoquinolin-1-one] | < 50 nM | 9.2% | 
Cc1noc(-c2cnc(Nc3ccc4c(c3)CNC4=O)nc2N[C@H](CO)c2ccccc2)n1 [Compound 571, 5-[[4-[[(1S)-2-hydroxy-1-phenyl-ethyl]amino]-5-(3-methyl-1,2,4-oxadiazol-5-yl)pyrimidin-2-yl]amino]isoindolin-1-one] | < 50 nM | 8% | IL-2, pg/mL stimulated [2, 4]: C (25.0 pg/mL≤IL-2<35.0 pg/mL)
CN(C)Cc1noc(-c2cnc(Nc3ccc4c(c3)CCCS4(=O)=O)nc2N[C@H](CO)c2ccccc2)n1 [Compound 583, (2S)-2-[[5-[3-[(dimethylamino)methyl]-1,2,4-oxadiazol-5-yl]-2-[(1,1-dioxo-3,4-dihydro-2H-thiochromen-6-yl)amino]pyrimidin-4-yl]amino]-2-phenyl-ethanol] | < 50 nM |  | IL-2, pg/mL stimulated [2, 7]: B (50 pg/mL≤IL-2<100 pg/mL)
Cn1cc(-c2cnc(Nc3ccc4c(c3)CCNC4=O)nc2N[C@H](CO)c2ccccc2)cn1 [Compound 584, 6-[[4-[[(1S)-2-hydroxy-1-phenyl-ethyl]amino]-5-(1-methylpyrazol-4-yl)pyrimidin-2-yl]amino]-3,4-dihydro-2H-isoquinolin-1-one] | < 50 nM |  | IL-2, pg/mL stimulated [2, 7]: A (IL-2<50 pg/mL)
CN(C)Cc1noc(-c2cnc(Nc3ccc4c(c3)CNC4=O)nc2N[C@H](CO)c2ccccc2)n1 [Compound 585, 5-[[5-[3-[(dimethylamino)methyl]-1,2,4-oxadiazol-5-yl]-4-[[(1S)-2-hydroxy-1-phenyl-ethyl]amino]pyrimidin-2-yl]amino]isoindolin-1-one] | < 50 nM |  | IL-2, pg/mL stimulated [2, 8]: D (150 pg/mL≤IL-2)
O=S1(=O)CCCc2cc(Nc3ncc(-c4nc(CN5CCCC5)no4)c(N[C@H](CO)c4ccccc4)n3)ccc21 [Compound 586, (2S)-2-[[2-[(1,1-dioxo-3,4-dihydro-2H-thiochromen-6-yl)amino]-5-[3-(pyrrolidin-1-ylmethyl)-1,2,4-oxadiazol-5-yl]pyrimidin-4-yl]amino]-2-phenyl-ethanol] | < 50 nM |  | IL-2, pg/mL stimulated [2, 8]: D (150 pg/mL≤IL-2)
O=C1NCc2cc(Nc3ncc(-c4nc(CN5CCCC5)no4)c(N[C@H](CO)c4ccccc4)n3)ccc21 [Compound 587, 5-[[4-[[(1S)-2-hydroxy-1-phenyl-ethyl]amino]-5-[3-(pyrrolidin-1-ylmethyl)-1,2,4-oxadiazol-5-yl]pyrimidin-2-yl]amino]isoindolin-1-one] | < 50 nM |  | IL-2, pg/mL stimulated [2, 8]: D (150 pg/mL≤IL-2)
